Data on two compounds can be found in article PMC10594211, “Characterization of pyridylpiperazine-based efflux pump inhibitors for Acinetobacter baumannii” (JAC-Antimicrobial Resistance, 2023).

The target of experiment [1] is T1, AcrB (AcrAB-TolC) (Escherichia coli, UniProt P31224).
T1 construct: full-length RND pump in E. coli cells; strain only in supplement; with Multidrug efflux pump subunit AcrA; Outer membrane protein TolC
The experiment is described as follows: antibiotic boosting in E. coli cells. The format is cell-based.

Experiment [2] has as its target T2, AdeJ (Acinetobacter baumannii, UniProt Q2FD94).
T2 construct: native chromosomal AdeJ in A. baumannii cells (other RND pumps present); isogenic point mutants by allelic exchange; with Membrane fusion protein AdeI; Outer membrane efflux protein AdeK
The experiment is described as follows: antibiotic MIC and checkerboard in A. baumannii cells. Format: cell-based. The note with it: 40 µM EPI.

Experiment [3] has as its target T3, AdeIJK (AdeJ) (Acinetobacter baumannii, UniProt Q2FD94).
T3 construct: adeIJK operon under acrA promoter in chromosome of E. coli ΔacrAB; tripartite RND pump; with Membrane fusion protein AdeI; Outer membrane efflux protein AdeK
The experiment is described as follows: antibiotic MIC in E. coli ΔacrAB expressing adeIJK (REMA). Format: cell-based, Escherichia coli. The note with it: 40 µM EPI; fusidic acid, novobiocin, erythromycin, SDS.

Experiment [4] concerns the target T4, AdeFGH (AdeG) (Acinetobacter baumannii, UniProt A0A090C131).
T4 construct: adeFGH operon under acrA promoter in chromosome of E. coli ΔacrAB; tripartite RND pump; with Membrane fusion protein AdeF; Outer membrane efflux protein AdeH
Nature of the experiment: antibiotic MIC in E. coli ΔacrAB expressing adeFGH (REMA). The format is cell-based, Escherichia coli ΔacrAB. The settings on record: 40 µM EPI; chloramphenicol, oxacillin, SDS.

T3 sequence (Q24LT6 entry or part of it): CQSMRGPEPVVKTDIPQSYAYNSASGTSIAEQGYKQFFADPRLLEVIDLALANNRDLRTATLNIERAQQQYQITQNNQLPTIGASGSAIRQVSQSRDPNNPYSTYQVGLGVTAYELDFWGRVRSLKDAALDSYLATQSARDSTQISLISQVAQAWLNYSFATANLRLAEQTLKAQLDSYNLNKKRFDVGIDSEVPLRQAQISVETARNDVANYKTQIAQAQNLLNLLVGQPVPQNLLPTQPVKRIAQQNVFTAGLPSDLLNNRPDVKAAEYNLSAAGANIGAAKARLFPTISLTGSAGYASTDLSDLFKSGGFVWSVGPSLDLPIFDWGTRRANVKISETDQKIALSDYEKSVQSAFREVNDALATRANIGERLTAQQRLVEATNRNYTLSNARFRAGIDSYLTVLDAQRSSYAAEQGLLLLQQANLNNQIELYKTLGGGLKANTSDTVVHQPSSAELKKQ
T3 sequence (Q2FD95 entry or part of it, further chain): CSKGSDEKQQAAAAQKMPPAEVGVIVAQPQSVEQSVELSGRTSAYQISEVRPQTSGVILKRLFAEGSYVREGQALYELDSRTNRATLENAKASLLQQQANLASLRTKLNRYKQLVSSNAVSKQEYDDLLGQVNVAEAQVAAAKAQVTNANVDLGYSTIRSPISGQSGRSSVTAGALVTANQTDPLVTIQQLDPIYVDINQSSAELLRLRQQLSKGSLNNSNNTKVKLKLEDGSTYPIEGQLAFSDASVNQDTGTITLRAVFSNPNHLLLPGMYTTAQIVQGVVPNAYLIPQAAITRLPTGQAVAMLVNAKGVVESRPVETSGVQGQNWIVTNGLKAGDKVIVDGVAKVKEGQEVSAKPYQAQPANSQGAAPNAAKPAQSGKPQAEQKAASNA
T3 sequence (Q2FD94 entry or part of it): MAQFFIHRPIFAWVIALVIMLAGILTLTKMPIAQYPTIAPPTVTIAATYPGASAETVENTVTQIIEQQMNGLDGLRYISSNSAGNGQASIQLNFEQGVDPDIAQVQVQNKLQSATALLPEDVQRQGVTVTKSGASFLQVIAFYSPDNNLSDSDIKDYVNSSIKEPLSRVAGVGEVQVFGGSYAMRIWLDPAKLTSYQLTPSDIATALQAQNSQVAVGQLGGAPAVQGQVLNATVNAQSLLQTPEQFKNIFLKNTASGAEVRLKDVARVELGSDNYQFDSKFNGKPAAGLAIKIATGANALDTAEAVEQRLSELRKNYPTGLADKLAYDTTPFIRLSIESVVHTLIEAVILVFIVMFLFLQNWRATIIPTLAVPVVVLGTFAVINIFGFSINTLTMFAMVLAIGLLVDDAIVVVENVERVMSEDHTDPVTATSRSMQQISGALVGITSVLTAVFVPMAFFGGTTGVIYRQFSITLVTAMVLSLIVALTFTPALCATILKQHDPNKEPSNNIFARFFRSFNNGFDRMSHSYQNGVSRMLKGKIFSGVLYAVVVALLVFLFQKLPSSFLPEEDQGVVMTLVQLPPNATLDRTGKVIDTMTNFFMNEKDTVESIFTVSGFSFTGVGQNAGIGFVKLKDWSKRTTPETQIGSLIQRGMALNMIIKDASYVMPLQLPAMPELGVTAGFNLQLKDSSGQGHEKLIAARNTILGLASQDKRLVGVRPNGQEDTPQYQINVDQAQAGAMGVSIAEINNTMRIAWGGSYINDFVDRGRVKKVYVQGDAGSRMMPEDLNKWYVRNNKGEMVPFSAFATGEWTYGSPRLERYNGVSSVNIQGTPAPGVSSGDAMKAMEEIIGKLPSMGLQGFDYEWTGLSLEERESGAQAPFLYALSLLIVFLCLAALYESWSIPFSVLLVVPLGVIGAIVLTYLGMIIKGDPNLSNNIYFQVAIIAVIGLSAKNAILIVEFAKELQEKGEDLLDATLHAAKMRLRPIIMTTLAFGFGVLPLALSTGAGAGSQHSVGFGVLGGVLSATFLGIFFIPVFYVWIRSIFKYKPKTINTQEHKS
T2 sequence (Q24LT6 entry or part of it): as the sequence (Q24LT6 entry or part of it) above
T2 sequence (Q2FD94 entry or part of it): as the sequence (Q2FD94 entry or part of it) above
T2 sequence (Q2FD95 entry or part of it, further chain): as the sequence (Q2FD95 entry or part of it, further chain) above

The term EC90 denotes the concentration needed for an effect of 90%. In the case of `NCc1cccc(-c2ccc3nc(N4CCNCC4)c(Cl)cc3c2)c1` [compound 1, BDM91531], in experiment [1], the EC90 is 240 nM. The MIC entry was “antibiotic boosting in A. baumannii by BDM91531, BDM91892 or PAβN is through AdeIJK inhibition” in experiment [2]; “both BDM91531 and BDM91892 can inhibit the activity of AdeFGH and AdeIJK” in experiment [3]; “both BDM91531 and BDM91892 can inhibit the activity of AdeFGH and AdeIJK” in experiment [4].

In the case of `NCCc1ccccc1C#Cc1cnc(N2CCNCC2)c(Cl)c1` [compound 11, BDM91892], the EC90 in experiment [1] came out at 1500 nM. The MIC entry is “antibiotic boosting in A. baumannii by BDM91531, BDM91892 or PAβN is through AdeIJK inhibition” in experiment [2]; “both BDM91531 and BDM91892 can inhibit the activity of AdeFGH and AdeIJK” in experiment [3]; “both BDM91531 and BDM91892 can inhibit the activity of AdeFGH and AdeIJK” in experiment [4].
